Results on 8 substances are retold here after PMC9875028, “Identification and virtual screening of novel anti-inflammatory peptides from broccoli fermented by Lactobacillus strains” (Frontiers in Nutrition, 2023).

Entries after “also recorded” stand apart in the source; their conditions may differ.

The subject of experiment [1] is IL-6. The experiment is described as follows: IL-6 secretion by LPS-stimulated RAW264.7 cells (ELISA). The experiment is classed as cell-based, Mouse. The conditions noted are these: for effect on IL-6 production (in words): synthetic peptides 25, 50, 100 μM. Here is the method:
(§1) RAW264.7 cells were cultured in DMEM medium containing 10% FBS and 1% double antibody at 37°C and 5% CO2 incubator. CCK-8 reagent was used for cell viability assay.
(§2) RAW264.7 cells (3 × 10^6 cells / mL) seeded into 12-well plates were pretreated with various concentrations of broccoli hydrolyzates or synthetic peptides for 2 h before stimulation by LPS (200 ng/mL). NO was determined using Griess reagent. TNF-α and IL-6 were measured by ELISA kits according to the manufacturer's instructions. More details of the assay are shown in Supplementary Table S2.

Experiment [2] concerns TNF-α. As to the kind of experiment: TNF-α secretion by LPS-stimulated RAW264.7 cells (ELISA). The experiment is classed as cell-based, Mouse. The conditions noted are these: for inhibition rate on TNF-α / effect on TNF-α production (in words): LPS 200 ng/mL; for inhibition rate on TNF-α: mean ± SD, n = 3; for effect on TNF-α production (in words): synthetic peptides 25, 50, 100 μM. Here is the method:
as §1, §2
In general terms: An ELISA detects its analyte on a solid surface through an enzyme-linked reagent.

The test system of experiment [3] is NO. As to the kind of experiment: NO release from LPS-stimulated RAW264.7 cells (Griess reagent). The experiment is classed as cell-based, Mouse. The conditions noted are these: LPS 200 ng/mL; for inhibition rate of NO release: mean ± SD, n = 3. As to the method:
as §1, §2
A general note: The Griess reaction detects nitrite, a stable product of nitric oxide.

Experiment [4] has as its system IL-6. Set-up: method as in doi:10.1016/j.jff.2020.104044. The conditions noted are these: sturgeon protein peptide; cited from earlier work.
Experiment [5] concerns TNF-α. Set-up: method as in doi:10.1016/j.jff.2020.104044. The conditions noted are these: sturgeon protein peptide; cited from earlier work.
[6] abbreviates: peptide concentration exceeding 25 μM.

In the case of “ADLAHLPF [synthetic peptide identified from broccoli hydrolysate]”, in experiment [1] (LPS 200 ng/mL), the “effect on IL-6 production (in words)” value is reported as “significantly inhibited”. For the same substance, in experiment [2] (synthetic peptide 100 μM), the “inhibition rate on TNF-α” value came to 73.19 ± 5.31%. Also, the “effect on TNF-α production (in words)” value in experiment [2] was “significantly inhibited; also recorded: dose-dependently decreased TNF-α”.
In the case of CKVWPPLH, the “inhibition rate on TNF-α” value in experiment [2] (synthetic peptide 100 μM) is 73.83 ± 0.81%. For the same substance, the “effect on TNF-α production (in words)” value in experiment [2] is reported as “dose-dependently decreased TNF-α”.
Take “DGRYW [synthetic peptide identified from broccoli hydrolysate]”: the “inhibition rate of NO release” value in experiment [3] (synthetic peptide 100 μM) is 53.94 ± 2.49%. In experiment [3] (synthetic peptides 25, 50, 100 μM), the “effect on NO secretion (in words)” value is “reduced NO content in inflammatory cells in a dose-dependent manner”.
In the case of “FGDFNPGGRL [synthetic peptide identified from broccoli hydrolysate]”, in experiment [1] (LPS 200 ng/mL), the “effect on IL-6 production (in words)” value is “only inhibited IL-6 at a concentration of 50 μM”. Besides, the “inhibition rate on TNF-α” value in experiment [2] (synthetic peptide 100 μM) was 68.44 ± 5.63%. Further, the “effect on TNF-α production (in words)” value in experiment [2] is reported as “dose-dependently decreased TNF-α”.
For “GDRW [synthetic peptide identified from broccoli hydrolysate]”, the “effect on IL-6 production (in words)” value in experiment [1] (LPS 200 ng/mL) is listed as “significantly inhibited”. Besides, the “effect on TNF-α production (in words)” value in experiment [2] was “significantly inhibited”.
Consider “KASFAFAGL [synthetic peptide identified from broccoli hydrolysate]”, for which the “inhibitory activity on IL-6 secretion (in words)” value in experiment [1] (setting [6]) is given as “did not show inhibitory activity”. Besides, the “inhibition rate on IL-6” value in experiment [1] (synthetic peptide 25 μM (low dose), LPS 200 ng/mL, mean ± SD, n = 3) is recorded as 29.84 ± 0.63%. Further, the “inhibitory activity on TNF-α secretion (in words)” value in experiment [2] (setting [6]) is recorded as “did not show inhibitory activity”. Moreover, the “inhibition rate on TNF-α” value in experiment [2] (synthetic peptide 25 μM (low dose)) worked out at 43.59 ± 0.27%.
Consider KIWHHFF, for which the “inhibition of LPS-induced IL-6 secretion (in words)” value in experiment [4] was “inhibited LPS-induced IL-6 secretion only at the lowest concentration”. Moreover, in experiment [5], the “TNF-α inhibitory activity (in words)” value was “did not exhibit TNF-α inhibitory activity”.
“SIWYGPDRP [synthetic peptide identified from broccoli hydrolysate]”: the “inhibition rate of NO release” value in experiment [3] (synthetic peptide 25 μM) was found to be 52.32 ± 1.48%.
